{"source": "patent US8304252B2", "about": "“Stereoselective bioconversion of aliphatic dinitriles into cyano carboxylic acids” (Pfizer Inc., priority 2004, dated 2012)", "test": "physchem", "type": "physicochemical", "settings": "30 °C, pH 7.5, aqueous buffer", "experimental": "This process can be carried out in reaction mixtures comprised of two phases: an aqueous phase, which initially contains enzyme and dissolved 2-isobutyl-succinonitrile, and an organic phase, which consist mainly of racemic 2-isobutyl-succinonitrile. Two-phase reaction mixtures are prepared by adding 2-isobutyl-succinonitrile to an aqueous solution of enzyme and buffer agents such that the amount of 2-isobutyl-succinonitrile added exceeds it aqueous solubility limit. The aqueous solubility limit of 2-isobutyl-succinonitrile in 50 mM potassium phosphate (30° C., pH 7.5) is approximately 0.06M. Over the course of the reaction, (S)-3-cyano-5-methylhexanoic acid ammonium salt is formed and increases in concentration in the aqueous phase, while the organic phase decreases in volume and becomes enriched in (R)-2-isobutyl-succinonitrile. Alternately, this process can also be carried out in reaction mixtures comprised of three phases: an aqueous phase, which initially contains dissolved 2-isobutyl-succinonitrile, an organic phase, which consists mainly of racemic 2-isobutyl-succinonitrile, and a solid phase, which consists of enzyme immobilized on an insoluble support. Three-phase reaction mixtures are prepared by the procedure described for two-phase reaction mixture except that an enzyme immobilized on an insoluble support is used in place of an un-immobilized enzyme."}
{"molecule": "CC(C)CC(C#N)CC#N", "note": "(racemic) [2-isobutyl-succinonitrile]", "values": [{"measurement": "solubility", "result": "~60", "unit": "mM"}]}
